According to patent US6960608B2, “Fused indazoles and indoles and their use for the treatment of glaucoma” (Alcon, Inc., priority 2001, dated 2005):

Assays:
[1] = molecular target: T1, 5-HT2 receptor (Rattus norvegicus, UniProt P14842); experiment: 5-HT2 functional assay: phosphoinositide (PI) turnover assay; format: cell-based; settings: for Emax: A7R5, read-out: Efficacy (Emax, %)
T1 construct: A7r5 rat vascular smooth muscle cells; endogenous in cells; host or cells: A7r5 rat vascular smooth muscle cells
Protocol: The relative agonist activity of serotonergic compounds at the 5-HT2 receptor can be determined in vitro using the ability of the compounds to stimulate the production of [^3H]inositol phosphates in [^3H]myo-inositol-labeled A7r5 rat vascular smooth muscle cells by their ability to activate the enzyme phospholipase C. These cells are grown in culture plates, maintained in a humidified atmosphere of 5% CO2 and 95% air and fed semi-weekly with Dulbecco's modified Eagle medium (DMEM) containing 4.5 g/L glucose and supplemented with 2 mM glutamine, 10 μg/ml gentamicin, and 10% fetal bovine serum. For the purpose of conducting the phosphoinositide (PI) turnover experiments, the A7r5 cells are cultured in 24-well plates as previously [J. Pharmacol. Expt. Ther. 286, 411 (1998)]. Confluent cells are exposed for 24-30 hrs to 1.5 μCi [^3H]-myo-inositol (18.3 Ci/mmol) in 0.5 mL of serum-free medium. Cells are then rinsed once with DMEM/F-12 containing 10 mM LiCl prior to incubation with the test agent (or solvent as the control) in 1.0 mL of the same medium for 1 hr at 37° C., after which the medium is aspirated and 1 mL of cold 0.1 M formic acid added to stop the reaction. The chromatographic separation of [^3H]-inositol phosphates ([^3H]-IPs) on an AG-1-X8 column is performed as previously described [J. Pharmacol. Expt. Ther. 286, 411 (1998)] with sequential washes with H2O and 50 mM ammonium formate, followed by elution of the total [^3H]-IPs fraction with 1.2 M ammonium formate containing 0.1 M formic acid. The eluate (4 mL) is collected, mixed with 15 ml scintillation fluid, and the total [^3H]-IPs determined by scintillation counting on a beta-counter. Concentration-response data are analyzed by the sigmoidal fit function of the Origin Scientific Graphics software (Microcal Software, Northampton, MA) to determine agonist potency (EC50 value) and efficacy (Emax).

[2] = test system: lasered (hypertensive) eyes of conscious cynomolgus monkeys; experiment: Acute IOP response in lasered (hypertensive) eyes of conscious cynomolgus monkeys; format: in vivo, cynomolgus monkey; settings: 300 μg topical, lasered eye
Protocol: Intraocular pressure (IOP) was determined with an Alcon Pneumatonometer after light corneal anesthesia with 0.1% proparacaine. Eyes were washed with saline after each measurement. After a baseline IOP measurement, test compound was instilled in one 30 μL aliquot to the right eyes only of nine cynomolgus monkeys. Vehicle was instilled in the right eyes of six additional animals. Subsequent IOP measurements were taken at 1, 3, and 6 hours. A compound is considered efficacious in this model of ocular hypertension if there is a decrease in the baseline IOP of the lasered eye (O.D.) of at least 20% following topical administration.

T1 sequence (P14842 whole entry): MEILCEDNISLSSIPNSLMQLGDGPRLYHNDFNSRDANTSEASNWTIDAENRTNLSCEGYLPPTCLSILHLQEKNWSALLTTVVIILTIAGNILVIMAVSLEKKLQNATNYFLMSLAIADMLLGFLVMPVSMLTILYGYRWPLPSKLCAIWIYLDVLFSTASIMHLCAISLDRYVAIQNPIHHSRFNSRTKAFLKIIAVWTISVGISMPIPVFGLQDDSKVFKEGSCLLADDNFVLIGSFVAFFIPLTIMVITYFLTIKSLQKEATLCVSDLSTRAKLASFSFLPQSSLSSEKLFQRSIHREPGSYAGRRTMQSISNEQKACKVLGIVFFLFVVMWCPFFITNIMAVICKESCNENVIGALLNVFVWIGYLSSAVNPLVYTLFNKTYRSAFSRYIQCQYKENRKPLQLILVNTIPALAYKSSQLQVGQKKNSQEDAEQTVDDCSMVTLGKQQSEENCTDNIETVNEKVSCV

Compound | EC50 [1] | Emax [1] | melting point | Percent Change in IOP ± SEM ([2]; 1 hour after dose) | Percent Change in IOP ± SEM ([2]; 3 hours after dose) | Percent Change in IOP ± SEM ([2]; 6 hours after dose)
CC(N)Cn1nc2c3c(cc(O)cc31)CCC2.Cl.Cl (stereo not drawn) [Example 1, 2-(2-Aminopropyl)-2,6,7,8-tetrahydro-benzo[cd]indazol-4-ol dihydrochloride] | 374 nM | 85% | 286 to 288 °C | −5.9 ± 2.69% | −20.0 ± 3.54% | −21.6 ± 4.91%
CC(N)Cn1nc2c3c(ccc(O)c31)CCC2.Cl.Cl (stereo not drawn) [Example 2, 2-(2-Aminopropyl)-2,6,7,8-tetrahydro-benzo[cd]indazol-3-ol dihydrochloride] | 1440 nM | 55% | 284 to 286 °C |  |  | 
